From patent US9682995B2, “Amino-substituted isothiazoles” (BAYER PHARMA AKTIENGESELLSCHAFT, priority 2013, dated 2017)
pIC50: −log10 of the molar value.

Key:
[1] = system: spindle assembly checkpoint; assay: SAC-Formation - Paclitaxel-Induced Assay; format: cell-based; conditions: Homo sapiens; HeLa cells, paclitaxel 0.05 μM, 24 h, phosphorylated histone H3 on serine 10
Description: The spindle assembly checkpoint assures the proper segregation of chromosomes during mitosis. Upon entry into mitosis, chromosomes begin to condensate which is accompanied by the phosphorylation of histone H3 on serine 10. Dephosphorylation of histone H3 on serine 10 begins in anaphase and ends at early telophase. Accordingly, phosphorylation of histone H3 on serine 10 can be utilized as a marker of cells in mitosis. Nocodazole is a microtubule destabilizing substance. Paclitaxel is a microtubule stabilizing compound. Thus, nocodazole as well as paclitaxel interfere with microtubule dynamics and mobilize the spindle assembly checkpoint. […] The mitotic breakthrough can be detected by the decrease of cells with phosphorylation of histone H3 on serine 10. This decline is used as a marker to determine the capability of compounds of the present invention to induce a mitotic breakthrough. The typical morphological alteration of nuclei with a prematurely completed mitosis after SAC-inhibition can be monitored via image analysis routines supporting those findings.
The nocodazole and paclitaxel variations were used to focus on compounds that are capable of inhibiting a SAC induced by both microtubule destabilization as well as microtubule stabilization. When SAC inducing agents and compounds are given simultaneously, inhibitors that effectively block the SAC during formation or abrogation are identified. When cells are incubated with a SAC inducing agent and the SAC interfering compound is given after a defined time, inhibitors are identified that effectively block SAC abrogation.
Cultivated cells of the human cervical tumor cell line HeLa (ATCC CCL-2) were plated at a density of 1000 cells/well in a 1536-well microtiter plate in 2 μl PAA Ham's F12 Medium supplemented with 1% (v/v) glutamine, 1% (v/v) penicillin, 1% (v/v) streptomycin and 10% (v/v) fetal calf serum. After incubation overnight at 37° C., 10 μl/well paclitaxel at a final concentration of 0.05 μM were added to cells. Test compounds solubilized in dimethyl sulfoxide (DMSO) were added at various concentrations (0 μM, as well as in the range of 0.005 μM-20 μM; the final concentration of the solvent DMSO was 0.5% (v/v)). Cells were incubated for 24 h at 37° C. in the presence of test compounds in combination with paclitaxel. Thereafter, cells were fixed in 4% (v/v) paraformaldehyde in phosphate buffered saline (PBS) at 4° C. overnight then permeabilized in 0.1% (v/v) Triton X™ 100 in PBS at room temperature for 20 min and blocked in 0.5% (v/v) bovine serum albumin (BSA) in PBS at room temperature for 15 min. After washing with PBS, 5 μl/well antibody solution (anti-phospho-histone H3 clone 3H10, FITC; Millipore, Cat #16-222; 1:1000 dilution) was added to cells, which were incubated for 2 h at room temperature. Afterwards, cells were washed with PBS and 5 μl/well solution of HOECHST 33342 dye (5 μg/ml) was added to cells and cells were incubated 15 min at room temperature in the dark. Cells were washed twice with PBS then covered with PBS and stored at 4° C. until analysis. Images were acquired with a PERKIN ELMER OPERA™ High-Content Analysis reader. Images were analyzed with image analysis software MetaXpress™ from Molecular devices utilizing the Mitotic Index application module. In this assay both labels HOECHST 33342 and phosphorylated Histone H3 on serine 10 were measured. HOECHST 33342 labels the DNA and is used to count the cell number. The staining of phosphorylated Histone H3 on serine 10 determines the number of mitotic cells. […] Otherwise cells were arrested at G2/M phase of the cell cycle progression. The raw assay data were further analyzed by four-parametric hill equation using Genedata's Assay Analyzer and Condoseo software.

human kinase Mps-1 = human kinase Mps-1 (Homo sapiens (Human), UniProt P33981); assay: Mps-1 kinase assay (TR-FRET); format: biochemical; conditions: 10 μM ATP; read-out: Mps1 avg (IC50 [mol/l])
Description: The human kinase Mps-1 phosphorylates a biotinylated substrate peptide. Detection of the phosphorylated product is achieved by time-resolved fluorescence resonance energy transfer (TR-FRET) from Europium-labelled anti-phospho-Serine/Threonine antibody as donor to streptavidin labelled with cross-linked allophycocyanin (SA-XLent) as acceptor. Compounds are tested for their inhibition of the kinase activity.
N-terminally GST-tagged human full length recombinant Mps-1 kinase (purchased from Invitrogen, Karslruhe, Germany, cat. no PV4071) was used. As substrate for the kinase reaction a biotinylated peptide of the amino-acid sequence biotin-Ahx-PWDPDDADITEILG (C-terminus in amide form, purchased from Biosyntan GmbH, Berlin) was used.
For the assay 50 nl of a 100-fold concentrated solution of the test compound in DMSO was pipetted into a black low volume 384 well microtiter plate (Greiner Bio-One, Frickenhausen, Germany), 2 μl of a solution of Mps-1 in assay buffer [0.1 mM sodium-ortho-vanadate, 10 mM MgCl2, 2 mM DTT, 25 mM Hepes pH 7.7, 0.05% BSA (w/v), 0.001% Pluronic F-127] were added and the mixture was incubated for 15 min at 22° C. to allow pre-binding of the test compounds to Mps-1 before the start of the kinase reaction. Then the kinase reaction was started by the addition of 3 μl of a solution of 16.7 μM adenosine-tri-phosphate (ATP, 16.7 μM=>final conc. in the 5 μl assay volume is 10 μM) and peptide substrate (1.67 μM=>final conc. in the 5 μl assay volume is 1 μM) in assay buffer and the resulting mixture was incubated for a reaction time of 60 min at 22° C. The concentration of Mps-1 in the assay was adjusted to the activity of the enzyme lot and was chosen appropriate to have the assay in the linear range, typical enzyme concentrations were in the range of about 0.5 nM (final conc. in the 5 μl assay volume). The reaction was stopped by the addition of 5 μl of a solution of TR-FRET detection reagents (100 mM Hepes pH 7.4, 0.1% BSA, 40 mM EDTA, 140 nM Streptavidin-XLent [#61GSTXLB, Fa. Cis Biointernational, Marcoule, France], 1.5 nM anti-phospho(Ser/Thr)-Europium-antibody [#AD0180, PerkinElmer LAS, Rodgau-Jugesheim, Germany]. Instead of the 1.5 nM anti-phospho(Ser/Thr)-Europium-antibody a mixture of 2 nM unlabeled anti-phospho ser/thr-pro antibody MPM-2 [Millipore cat. #05-368] and 1 nM LANCE EU-W1024 labeled anti-mouse IgG antibody [Perkin-Elmer, product no. AD0077] can be used).
The resulting mixture was incubated 1 h at 22° C. to allow the binding of the phosphorylated peptide to the anti-phospho(Ser/Thr)-Europium-antibody. Subsequently the amount of phosphorylated substrate was evaluated by measurement of the resonance energy transfer from the Europium-labelled anti-phospho(Ser/Thr) antibody to the Streptavidin-XLent. Therefore, the fluorescence emissions at 620 nm and 665 nm after excitation at 350 nm was measured in a Viewlux TR-FRET reader (PerkinElmer LAS, Rodgau-Jugesheim, Germany). The “blank-corrected normalized ratio” (a Viewlux specific readout, similar to the traditional ratio of the emissions at 665 nm and at 622 nm, in which blank and Eu-donor crosstalk are subtracted from the 665 nm signal before the ratio is calculated) was taken as the measure for the amount of phosphorylated substrate. The data were normalised (enzyme reaction without inhibitor=0% inhibition, all other assay components but no enzyme=100% inhibition).

Chain of human kinase Mps-1 (P33981 whole entry): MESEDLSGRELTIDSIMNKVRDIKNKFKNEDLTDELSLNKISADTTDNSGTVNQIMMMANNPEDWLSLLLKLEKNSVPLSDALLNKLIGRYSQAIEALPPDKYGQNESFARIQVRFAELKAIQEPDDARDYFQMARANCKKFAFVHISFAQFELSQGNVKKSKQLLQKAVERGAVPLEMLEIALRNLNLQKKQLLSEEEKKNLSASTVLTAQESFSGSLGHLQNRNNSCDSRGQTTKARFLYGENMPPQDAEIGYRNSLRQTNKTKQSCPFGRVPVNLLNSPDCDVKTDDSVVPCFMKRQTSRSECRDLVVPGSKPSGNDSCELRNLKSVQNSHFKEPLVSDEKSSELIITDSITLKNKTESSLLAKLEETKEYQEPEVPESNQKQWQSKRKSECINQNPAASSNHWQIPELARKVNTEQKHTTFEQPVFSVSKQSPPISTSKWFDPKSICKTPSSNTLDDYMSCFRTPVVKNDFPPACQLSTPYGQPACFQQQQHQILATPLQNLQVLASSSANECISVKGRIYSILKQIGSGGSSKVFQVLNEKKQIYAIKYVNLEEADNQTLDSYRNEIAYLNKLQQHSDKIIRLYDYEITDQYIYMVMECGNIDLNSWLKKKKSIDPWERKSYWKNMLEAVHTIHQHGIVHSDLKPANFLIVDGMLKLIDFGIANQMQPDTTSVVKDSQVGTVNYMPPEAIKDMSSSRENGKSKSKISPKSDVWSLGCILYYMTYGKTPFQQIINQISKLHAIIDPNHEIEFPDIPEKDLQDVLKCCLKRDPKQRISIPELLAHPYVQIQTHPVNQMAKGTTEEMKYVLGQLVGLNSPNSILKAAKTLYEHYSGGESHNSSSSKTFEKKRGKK

pIC50 [1]	pIC50 (human kinase Mps-1)	SMILES
5.80	< 4.70	CCc1ccccc1NC(=O)c1c(C)nsc1Nc1nccnc1C#N [Example 34, 5-[(3-Cyanopyrazin-2-yl)amino]-N-(2-ethylphenyl)-3-methyl-1,2-thiazole-4-carboxamide]
7.24	< 4.70	Cc1nsc(Nc2cnc3ccccc3n2)c1C(=O)Nc1ccc(Oc2ccccc2)nc1 [Example 112, 3-Methyl-N-(6-phenoxypyridin-3-yl)-5-(quinoxalin-2-ylamino)-1,2-thiazole-4-carboxamide]
5.16	< 4.70	CCc1ccccc1NC(=O)c1c(C)nsc1Nc1ncnc2sccc12 [Example 12, N-(2-Ethylphenyl)-3-methyl-5-(thieno[2,3-d]pyrimidin-4-ylamino)-1,2-thiazole-4-carboxamide]
5.60	< 4.70	CCc1ccccc1NC(=O)c1c(C)nsc1Nc1ccc(C#N)cn1 [Example 7, 5-[(5-Cyanopyridin-2-yl)amino]-N-(2-ethylphenyl)-3-methyl-1,2-thiazole-4-carboxamide]
6.60	< 4.70	Cc1nsc(Nc2cnccn2)c1C(=O)Nc1ccc(Cl)c(F)c1 [Example 56, N-(4-Chloro-3-fluorophenyl)-3-methyl-5-(pyrazin-2-ylamino)-1,2-thiazole-4-carboxamide]
7.80	< 4.70	Cc1nsc(Nc2ccc(C#N)cn2)c1C(=O)Nc1ccc(Cl)c(F)c1 [Example 52, N-(4-Chloro-3-fluorophenyl)-5-[(5-cyanopyridin-2-yl)amino]-3-methyl-1,2-thiazole-4-carboxamide]
5.34	< 4.70	CCc1ccccc1NC(=O)c1c(C)nsc1Nc1nc(C)nc2ccccc12 [Example 35, N-(2-Ethylphenyl)-3-methyl-5-[(2-methylquinazolin-4-yl)amino]-1,2-thiazole-4-carboxamide]
6.68	< 4.70	Cc1nsc(Nc2cncc(C(=O)N3CCOCC3)n2)c1C(=O)Nc1ccc(F)c(F)c1 [Example 107, N-(3,4-Difluorophenyl)-3-methyl-5-{[6-(morpholin-4-ylcarbonyl)pyrazin-2-yl]amino}-1,2-thiazole-4-carboxamide]
6.30	< 4.70	COc1ccc(NC(=O)c2c(C)nsc2Nc2cnc3cc(Cl)ccc3n2)cn1 [Example 23, 5-[(6-Chloroquinoxalin-2-yl)amino]-N-(6-methoxypyridin-3-yl)-3-methyl-1,2-thiazole-4-carboxamide]
6.77	< 4.70	Cc1nsc(Nc2cc(C#N)ccn2)c1C(=O)Nc1ccc(F)c(F)c1 [Example 27, 5-[(4-Cyanopyridin-2-yl)amino]-N-(3,4-difluorophenyl)-3-methyl-1,2-thiazole-4-carboxamide]
6.59	< 4.70	COc1ccc(NC(=O)c2c(C)nsc2Nc2cnc3cccc(C)c3n2)cn1 [Example 22, N-(6-methoxypyridin-3-yl)-3-methyl-5-[(8-methylquinoxalin-2-yl)amino]-1,2-thiazole-4-carboxamide]
6.24	< 4.70	CCc1ccccc1NC(=O)c1c(C)nsc1Nc1nc(C)nc2sccc12 [Example 38, N-(2-Ethylphenyl)-3-methyl-5-[(2-methylthieno[2,3-d]pyrimidin-4-yl)amino]-1,2-thiazole-4-carboxamide]
5.92	< 4.70	COc1ccc(NC(=O)c2c(C)nsc2Nc2cc(C#N)ccn2)cn1 [Example 25, 5-[(4-Cyanopyridin-2-yl)amino]-N-(6-methoxypyridin-3-yl)-3-methyl-1,2-thiazole-4-carboxamide]
6.14	< 4.70	CCc1ccccc1NC(=O)c1c(C)nsc1Nc1cnc2cccc(C)c2n1 [Example 33, N-(2-Ethylphenyl)-3-methyl-5-[(8-methylquinoxalin-2-yl)amino]-1,2-thiazole-4-carboxamide]
6.24	< 4.70	COc1ccc(NC(=O)c2c(C)nsc2Nc2cccc(C#N)n2)cn1 [Example 37, 5-[(6-Cyanopyridin-2-yl)amino]-N-(6-methoxypyridin-3-yl)-3-methyl-1,2-thiazole-4-carboxamide]
6.60	< 4.70	CCOC(=O)c1sc(Nc2snc(C)c2C(=O)Nc2ccccc2CC)nc1C [Example 26, Ethyl 2-({4-[(2-ethylphenyl)carbamoyl]-3-methyl-1,2-thiazol-5-yl}amino)-4-methyl-1,3-thiazole-5-carboxylate]
6.34	< 4.70	CCOC(=O)c1cnn2ccc(Nc3snc(C)c3C(=O)Nc3ccc(F)c(F)c3)nc12 [Example 55, Ethyl 5-({4-[(3,4-difluorophenyl)carbamoyl]-3-methyl-1,2-thiazol-5-yl}amino)-pyrazolo[1,5-a]pyrimidine-3-carboxylate]
6.92	< 4.70	Cc1nsc(Nc2cnc3ccccc3n2)c1C(=O)Nc1ccc(Cl)c(F)c1 [Example 40, N-(4-Chloro-3-fluorophenyl)-3-methyl-5-(quinoxalin-2-ylamino)-1,2-thiazole-4-carboxamide]

SMILES	pIC50 [1]	pIC50 (human kinase Mps-1)
CCc1ccccc1NC(=O)c1c(C)nsc1Nc1cnc2cc(F)ccc2n1 [Example 20, N-(2-Ethylphenyl)-5-[(6-fluoroquinoxalin-2-yl)amino]-3-methyl-1,2-thiazole-4-carboxamide]	6.40	< 4.70
